Test results as given in patent US20230321288A1, “RIBOFLAVIN PHOTOCHEMICAL TREATMENT (RPT)-BASED INACTIVATION METHOD OF PATHOGENS IN BIOLOGICAL LIQUID SAMPLE” (INSTITUTE OF BLOOD TRANSFUSION CHINESE ACADEMY OF MEDICAL …, priority 2020, published 2023).

How the values were obtained:
E. coli = experiment: RPT-based inactivation of E. coli in plasma, growth detected by Reed-Muench method (Example 1); format: cell-based, Escherichia coli; settings: 50 μM riboflavin, 15 min, 1 W
Description: In this example, the plasma of healthy blood donors containing 50 μM of riboflavin was irradiated with LED lamp beads in a series of wavelength ranges for 15 min at an irradiation intensity of 1 W. The growth of E. coli in the blood products was then detected by a Reed-Muench method.

Staphylococcus aureus = experiment: RPT-based inactivation of Staphylococcus aureus in apheresis platelets, growth detected by Reed-Muench method (Example 2); format: cell-based; settings: 50 μM riboflavin, 30 min
Description: (§1) In this example, the apheresis platelets containing 50 μM of riboflavin were separately irradiated with LED lamp beads with a wavelength of 395 nm±5 nm and fluorescent tubes with a wavelength of 309 nm to 313 nm for 30 min at irradiation intensities of 1 W (395 nm f 5 nm) and 9 W (309 nm to 313 nm), respectively. The growth of Staphylococcus aureus in the blood products was then detected by a Reed-Muench method.

apheresis platelets = experiment: Quality of platelet preservation after RPT (Example 2, Table 1); format: cell-based; settings: for K^+ / MPV / Na^+ / PH: platelets, 50 μM riboflavin, 30 min
Description: as §1
The properties and component contents of the platelet samples in the three groups of experiments were compared, and the results were as follows: […]

With `Cc1cc2nc3c(=O)[nH]c(=O)nc-3n(C[C@H](O)[C@H](O)[C@H](O)CO)c2cc1C` [riboflavin] the “pathogen inactivation effect on E. coli” value (E. coli; LED 365 nm ± 5 nm) was “desirable pathogen inactivation effect”, the “pathogen inactivation effect on E. coli” value (E. coli; LED 395 nm±5 nm) was “desirable pathogen inactivation effect” and the “inactivation of S. aureus” value (Staphylococcus aureus; 309 nm to 313 nm fluorescent tubes, 9 W) was “could inactivate the S. aureus”. For the same compound, the “inactivation effect on S. aureus compared with 309 nm to 313 nm fluorescent tubes” value (Staphylococcus aureus; 395 nm±5 nm LED) was “better”, the “inactivation of S. aureus” value (Staphylococcus aureus; 395 nm±5 nm LED, 1 W) was “could inactivate the S. aureus” and the “damage to the platelet samples” value (apheresis platelets) was “significantly less damage”. For the same compound, the “K^+” value (apheresis platelets; 309 nm to 313 nm, 9 W) was 3 mmol/L, the MPV (apheresis platelets; 309 nm to 313 nm, 9 W) was 12.1 and the “Na^+” value (apheresis platelets; 309 nm to 313 nm, 9 W) was 151 mmol/L. The PH (apheresis platelets; 309 nm to 313 nm, 9 W) was 7.26, the “K^+” value (apheresis platelets; 395 nm ± 5 nm, 1 W) was 2.7 ± 0^ mmol/L and the MPV (apheresis platelets; 395 nm ± 5 nm, 1 W) was 9.5 ± 0^. The “Na^+” value (apheresis platelets; 395 nm ± 5 nm, 1 W) was 153.6 ± 0.49 mmol/L and the PH (apheresis platelets; 395 nm ± 5 nm, 1 W) was 7.45 ± 0.01.
